Source: patent US6425888B1, “Ocular treatment device” (R. P. Scherer Corporation, priority 1994, dated 2002)
Counter-ions that a name gives are not always drawn.

Tested on: rabbits
Experiment: Miotic response (pupil diameter) of rabbits after a single spray from the blister crushing device of FIG. 18
Assay type: in vivo, rabbit
Settings: left eye, mean of 5 rabbits
Source text: The device of FIG. 18 was used in a study of the ocular response of rabbits to treatment according to the invention. The rabbits selected for the study were allowed to acclimatise for 4-5 days prior to treatment. They were subjected to manual restraining for 2 days prior to the study to condition them to the procedures involved in dosing. A device of the kind illustrated in FIG. 18 was then used to administer a single spray of isotonic 2% Pilocarpine hydrochloride (Pilocarpine HCl) solution to the corneal surface of the left eve of each of 5 rabbits, the right eyes remaining undosed. The following settings were used: 100 μm nozzle diameter 2.5 cm distance between nozzle tip and animal eye Sprays targeted towards the centre of the cornea of the animal eye The miotic response (reduction in pupil diameter) at various intervals following the application of the pilocarpine HCl solution was monitored under constant illumination using video photography. The pupil diameter of the left eye was expressed in proportion to the diameter of a fixed reference aperture situated at an equal distance from the video camera. The actual diameter was then calculated from the known diameter of the reference aperture.

CC[C@@H]1C(=O)OC[C@@H]1Cc1cncn1C [Pilocarpine HCl, Pilocarpine hydrochloride]
Pupil Diameter (+15 min after dose): 6.7 mm | Pupil Diameter (+30 min after dose): 6.8 mm | Pupil Diameter (+45 min after dose): 6.9 mm | Pupil Diameter (+1 hr after dose): 6.8 mm | Pupil Diameter (+1.5 hr after dose): 6.9 mm | Pupil Diameter (+2 hr after dose): 7.3 mm | Pupil Diameter (+2.5 hr after dose): 7.8 mm | Pupil Diameter (+3 hr after dose): 7.9 mm | Pupil Diameter (+3.5 hr after dose): 8.0 mm | Pupil Diameter (+4 hr after dose): 7.8 mm | Pupil Diameter (Dose (0 min), single spray of isotonic 2% solution to cornea): 7.8 mm
